Experimental data reported in patent US8883963B2 (Cadila Healthcare Limited, priority 2007, dated 2014).
Non-standard residues stand in square brackets, D forms with d. Residues, ends and D or L forms follow the SMILES beside them. ξ: configuration not given here. ξBip(2'-Et-4'-OMe) = CCc1cc(OC)ccc1-c1ccc(CC(N)C(=O)O)cc1; ξNva(5-(3,5-Me2-Ph)) = Cc1cc(C)cc(CCCC(N)C(=O)O)c1

Tests used:
Format in all cases: in vitro ADME
[1] = Stability in human plasma; details: 2 μM peptidomimetic, pooled human plasma, 37° C.; for half-life at 2 μM: pH 7.8, read-out: half-life (t1/2) when incubated with human plasma
Method: (§1) Reactions were terminated by the addition of TFA/H2O (15 mL, 10% (v/v)). […] The column was equilibrated with TFA/H20, at a flow rate of 1 mL/min.

[2] = Stability in simulated intestinal fluid; details: 2 μM peptidomimetic, simulated intestinal fluid pH 7.5, 37° C.; for half-life at 2 μM: read-out: half-life (t1/2) when incubated with simulated intestinal fluid
Method: as §1

[3] = Stability in simulated gastric fluid; details: 2 μM peptidomimetic, simulated gastric fluid pH 1.5, 37° C.; for half-life at 2 μM: read-out: half-life (t1/2) when incubated with simulated gastric fluid
Method: as §1

[4] = Stability in liver microsomes; details: 2 μM peptidomimetic, human liver microsomes, 37° C.; for half-life at 2 μM: pH 7.8, read-out: half-life (t1/2) when incubated with liver microsomes
Method: as §1

DPP IV = DPP IV (Homo sapiens, UniProt P27487); assay: Stability against DPP IV enzyme; details: 37° C.; for % degradation of peptidomimetics in 24 h when incubated with DPP-IV enzyme: 2 μM peptidomimetic; for half-life at 2 μM: DPP IV enzyme, pH 7.8, 2 μM peptidomimetic, read-out: half-life (t1/2) when incubated with DPP-IV enzyme
Chain of DPP IV (P27487 whole entry, species assumed): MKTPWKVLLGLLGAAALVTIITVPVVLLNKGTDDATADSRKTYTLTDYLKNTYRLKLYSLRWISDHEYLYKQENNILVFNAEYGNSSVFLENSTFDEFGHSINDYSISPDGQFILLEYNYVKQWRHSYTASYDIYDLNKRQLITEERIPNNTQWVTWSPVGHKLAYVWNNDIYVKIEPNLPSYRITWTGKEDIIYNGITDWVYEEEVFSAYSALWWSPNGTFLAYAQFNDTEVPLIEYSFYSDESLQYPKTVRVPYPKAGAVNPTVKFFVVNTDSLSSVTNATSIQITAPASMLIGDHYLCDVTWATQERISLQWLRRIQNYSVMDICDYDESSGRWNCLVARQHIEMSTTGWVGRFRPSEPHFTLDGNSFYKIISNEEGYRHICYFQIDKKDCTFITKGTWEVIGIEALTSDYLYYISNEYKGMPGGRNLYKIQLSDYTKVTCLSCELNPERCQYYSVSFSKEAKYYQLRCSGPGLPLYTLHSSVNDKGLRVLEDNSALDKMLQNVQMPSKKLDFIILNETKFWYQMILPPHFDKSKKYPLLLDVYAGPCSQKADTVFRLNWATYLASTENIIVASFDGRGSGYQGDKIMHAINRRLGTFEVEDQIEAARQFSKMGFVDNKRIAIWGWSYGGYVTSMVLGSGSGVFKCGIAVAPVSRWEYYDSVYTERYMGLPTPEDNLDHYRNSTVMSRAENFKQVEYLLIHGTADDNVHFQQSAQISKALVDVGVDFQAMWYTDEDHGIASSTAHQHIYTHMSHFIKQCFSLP
Method: as §1

| half-life (t1/2) when incubated with human plasma [1] | % degradation of peptidomimetics in 24 h when incubated with human plasma [1] [%] | % degradation of peptidomimetics in 24 h when incubated with simulated intestinal fluid [2] [%] | half-life at 2 μM [2] [min] | % degradation of peptidomimetics in 24 h when incubated with simulated gastric fluid [3] [%] | half-life at 2 μM [3] [min] | % degradation of peptidomimetics in 24 h when incubated with liver microsomes [4] [%] | half-life at 2 μM [4] [min] | % degradation of peptidomimetics in 24 h when incubated with DPP-IV enzyme (DPP IV) [%] | half-life at 2 μM [1] [min] | half-life (t1/2) when incubated with simulated intestinal fluid [2] | half-life (t1/2) when incubated with simulated gastric fluid [3] | half-life at 2 μM (DPP IV) [min] | Compound |
| --- | --- | --- | --- | --- | --- | --- | --- | --- | --- | --- | --- | --- | --- |
| (9) h | 75 | 100 | 30 | 100 | 30 | 100 | 30 | 74 | – | – | – | – | CCc1cc(OC)ccc1-c1ccc(CC(NC(=O)[C@H](CC(=O)O)NC(=O)[C@H](CO)NC(=O)[C@@H](NC(=O)C(C)(Cc2ccccc2F)NC(=O)[C@@H](NC(=O)CNC(=O)[C@H](CC(C(F)(F)F)C(F)(F)F)NC(=O)C(C)(C)NC(=O)[C@@H](N)Cc2c[nH]cn2)[C@H](C)O)[C@@H](C)O)C(=O)NC(CCCc2ccccc2)C(N)=O)cc1 (some centres unmarked) [compound 226] |
| – | 75 | 46 | – | 12 | – | 83 | 60 | 74 | 480 | (6) h | (8) h | 540 | CCc1cc(OC)ccc1-c1ccc(CC(NC(=O)[C@H](CC(=O)O)NC(=O)[C@H](CO)NC(=O)[C@@H](NC(=O)[C@H](Cc2ccccc2)NC(=O)[C@@H](NC(=O)CNC(=O)[C@H](CCC(N)=O)NC(=O)[C@H](C)NC(=O)[C@@H](N)Cc2c[nH]cn2)[C@@H](C)O)[C@@H](C)O)C(=O)NC(CCCc2cc(C)cc(C)c2)C(N)=O)cc1 (some centres unmarked) [compound 14] (H-HAQGTFTSD[ξBip(2'-Et-4'-OMe)][ξNva(5-(3,5-Me2-Ph))]-NH2) |
| (9) h | 70 | 100 | 30 | 100 | 30 | 100 | 30 | 72 | – | – | – | – | CCc1cc(OC)ccc1-c1ccc(CC(NC(=O)[C@H](CC(=O)O)NC(=O)[C@H](CO)NC(=O)[C@@H](NC(=O)C(C)(Cc2ccccc2F)NC(=O)[C@@H](NC(=O)CNC(=O)[C@H](CC(C(F)(F)F)C(F)(F)F)NC(=O)C(C)(C)NC(=O)[C@@H](N)Cc2c[nH]cn2)[C@@H](C)O)[C@@H](C)O)C(=O)NC(CCCc2ccccc2)C(N)=O)cc1 (some centres unmarked) [compound 234] |
| – | 71 | 40 | – | 14 | – | 78 | 60 | 70 | 480 | (6) h | (8) h | 540 | CCc1cc(OC)ccc1-c1ccc(CC(NC(=O)[C@H](CC(=O)O)NC(=O)[C@H](CO)NC(=O)[C@@H](NC(=O)[C@H](Cc2ccccc2)NC(=O)[C@@H](NC(=O)CNC(=O)[C@H](CCC(N)=O)NC(=O)C2(NC(=O)[C@@H](N)Cc3c[nH]cn3)CC2)[C@@H](C)O)[C@@H](C)O)C(=O)NC(CCCc2ccc(F)cc2F)C(N)=O)cc1 (single isomer, unassigned) [compound 70] |
